Data set [1] concerns the target Dihydroorotate dehydrogenase (quinone), mitochondrial (Homo sapiens, UniProt Q02127). In words: Inhibition of human dihydroorotate dehydrogenase.
Another data set relates to PBMC. In words: Antiproliferative activity against PHA-stimulated human PBMC assessed as inhibition of […] after 72 hrs by BrdU-ELISA assay. In kind it is functional, cell-based. Background: Incorporation of labelled thymidine or its analogues reports DNA synthesis.
Data set [2] in a line: Metabolic stability in human microsomes assessed as compound degradation at 5 uM after 30 mins. In kind it is ADME, Microsome. To be noted: read-out: Drug metabolism.
The subject of data set [3] is Rattus norvegicus. In words: Antiinflammatory activity in rat Freund's adjuvant induced-arthritis model assessed as inhibition of paw edema at 10 mg/kg qd administered 10 days post challenge for 10 consecutive days. The following applies: 240 h. In kind it is functional.
Data set [4] can be described thus: Half life in rat at 1 mg/kg, iv. In kind it is ADME, organism-based. Further details: dose 1 mg/kg, route intravenous. The following applies: in vivo.
The nature of data set [5]: Metabolic stability in rat microsomes assessed as compound degradation at 5 uM after 30 mins. In kind it is ADME, Microsome. To be noted: read-out: Drug metabolism.
Data set [6] in a line: Half life in human plasma. In kind it is ADME, organism-based.
For data set [7], the target named is Dihydroorotate dehydrogenase (quinone), mitochondrial (Rattus norvegicus, UniProt Q63707). The data set is described as follows: Inhibition of rat dihydroorotate dehydrogenase.
Data set [8] relates to Rattus norvegicus. In words: Antiinflammatory activity in rat Freund's adjuvant induced-arthritis model assessed as inhibition of paw edema administered 10 days post challenge once daily for 10 days. In kind it is functional. To be noted: 240 h.

Dihydroorotate dehydrogenase (quinone), mitochondrial (Homo sapiens, UniProt Q02127), sequence (Q02127 whole entry): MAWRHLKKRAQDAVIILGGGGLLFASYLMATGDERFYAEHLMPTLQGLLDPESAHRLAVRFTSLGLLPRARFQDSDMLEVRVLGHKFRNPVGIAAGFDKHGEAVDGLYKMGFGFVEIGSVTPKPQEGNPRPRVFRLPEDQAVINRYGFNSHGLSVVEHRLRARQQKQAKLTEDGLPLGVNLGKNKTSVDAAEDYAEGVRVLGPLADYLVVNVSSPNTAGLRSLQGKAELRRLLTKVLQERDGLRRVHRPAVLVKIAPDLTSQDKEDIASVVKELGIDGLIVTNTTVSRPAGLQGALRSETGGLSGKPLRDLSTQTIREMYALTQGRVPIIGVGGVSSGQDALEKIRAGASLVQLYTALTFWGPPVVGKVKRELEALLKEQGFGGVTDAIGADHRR
Dihydroorotate dehydrogenase (quinone), mitochondrial (Rattus norvegicus, UniProt Q63707), sequence (Q63707 whole entry): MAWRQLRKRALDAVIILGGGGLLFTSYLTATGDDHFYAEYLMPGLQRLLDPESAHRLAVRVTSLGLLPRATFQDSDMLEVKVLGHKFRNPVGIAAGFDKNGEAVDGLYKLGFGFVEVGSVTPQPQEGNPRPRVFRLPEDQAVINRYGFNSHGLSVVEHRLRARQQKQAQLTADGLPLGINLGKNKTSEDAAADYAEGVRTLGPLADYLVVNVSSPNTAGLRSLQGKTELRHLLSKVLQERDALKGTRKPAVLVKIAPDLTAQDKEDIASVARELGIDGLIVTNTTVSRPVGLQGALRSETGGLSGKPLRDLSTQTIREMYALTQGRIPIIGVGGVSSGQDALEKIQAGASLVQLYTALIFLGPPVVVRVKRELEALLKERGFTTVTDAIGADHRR

As to `CC/C(O)=C(\C#N)C(=O)Nc1ccc(-c2ccccc2Cl)c(C(=O)OC)c1`, in data set [1], the IC50 is 52 nM. Same read-out and setting: the figure for `CC/C(O)=C(\C#N)C(=O)Nc1ccc(-c2cccnc2)c(C(=O)OC)c1` is 40 nM. Consider `CC/C(O)=C(\C#N)C(=O)Nc1ccc(-c2cc(F)c(F)c(F)c2)c(C(=O)OC)c1`, for which the IC50 stood at 19 µM with PBMC and 137 nM in [1]. Regarding `CC/C(O)=C(\C#N)C(=O)Nc1ccc(-c2ccc(F)cc2)c(C(=O)OC)c1`, the values for the metabolised at 0.5 h, 5 µM in data set [2] and in [5] were 17% and 19%, respectively. The results for the IC50 (with PBMC; in data set [1]; in data set [7]) were 2 µM, 110 nM and 350 nM, respectively. Besides, the inhibition in vivo at 10 mg/kg in the data set with Rattus norvegicus [3] was 49%. Also, the half-life was 54 min in [4] and 14 days in data set [6]. Take `CC/C(O)=C(\C#N)C(=O)Nc1ccc(-c2ccc(F)cc2F)c(C(=O)OC)c1`: the IC50 is 6 µM with PBMC and 31 nM in [1].

`CC/C(O)=C(\C#N)C(=O)Nc1ccc(OS(=O)(=O)C(F)(F)F)c(C(=O)OC)c1` gave an IC50 in [1] of 93 nM. In data set [4], this compound showed a half-life of 120 min.

Consider `CC/C(O)=C(\C#N)C(=O)Nc1ccc(-c2ccc3c(c2)OCCO3)c(C(=O)OC)c1`, for which, in data set [1], it took 66 nM to reach half-maximal inhibition (IC50). In turn, `CC/C(O)=C(\C#N)C(=O)Nc1ccc(-c2ccc(F)c(F)c2)c(C(=O)OC)c1` returned an IC50 in [1] of 97 nM. Regarding `CC/C(O)=C(\C#N)C(=O)Nc1ccc(-c2cccc(OC(F)(F)F)c2)c(C(=O)OC)c1`, the IC50 is 37 µM in the data set with PBMC and 27 nM in data set [1]. On to `CCOc1cccc(-c2ccc(NC(=O)/C(C#N)=C(\O)CC)cc2C(=O)OC)c1`, for which the IC50 in [1] is 59 nM. Same read-out and setting: next, `CC/C(O)=C(\C#N)C(=O)Nc1ccc(-c2cccc(OC)c2)c(C(=O)OC)c1`: 26 nM; `CC/C(O)=C(\C#N)C(=O)Nc1ccc(-c2ccc(F)cc2OC)c(C(=O)OC)c1`: 66 nM; `CC/C(O)=C(\C#N)C(=O)Nc1ccc(-c2cccc(OC(F)F)c2)c(C(=O)OC)c1`: 34 nM. On the same count and under the same terms, next, `CC/C(O)=C(\C#N)C(=O)Nc1ccc(-c2cccc(OC3CCC3)c2)c(C(=O)OC)c1`: 31 nM.

Turning to `CC/C(O)=C(\C#N)C(=O)Nc1ccc(-c2ccc(F)cc2C)c(C(=O)OC)c1`, in data set [1], the IC50 came out at 49 nM. The compound `CC/C(O)=C(\C#N)C(=O)Nc1ccc(-c2cccc(F)c2)c(C(=O)OC)c1` gave an IC50 in data set [1] of 198 nM.

For the compound `CC/C(O)=C(\C#N)C(=O)Nc1ccc(OS(=O)(=O)C(F)(F)F)cc1`, the IC50 in data set [1] was 150 nM. Besides, in [4], the half-life was 480 min. `CC/C(O)=C(\C#N)C(=O)Nc1ccc(-c2ccccc2)c(C(=O)OC)c1` gave an IC50 in data set [1] of 73 nM. In the case of `CC/C(O)=C(\C#N)C(=O)Nc1ccc(-c2ccc3c(c2)OCO3)c(C(=O)OC)c1`, the values for the IC50 (with PBMC; in data set [1]) were 18.5 µM and 76 nM, respectively. As to `CC/C(O)=C(\C#N)C(=O)Nc1ccc(-c2ccc(F)nc2)c(C(=O)OC)c1`, 150 nM corresponded to half-maximal inhibition in [1] (IC50).

Regarding `C/C(O)=C(\C#N)C(=O)Nc1ccc(C(F)(F)F)cc1` [TERIFLUNOMIDE], the metabolised at 0.5 h, 5 µM was 3% in data set [2] and 0% in data set [5]. Also, the IC50 in the data set on PBMC came to 46 µM. The compound further had a half-life in data set [4] of 846 min. In addition, the ED50 in the data set on Rattus norvegicus [8] was 2.88 mg/kg. On to `CC/C(O)=C(\C#N)C(=O)Nc1ccc(-c2ccc(Cl)cc2)c(C(=O)OC)c1`, for which the results for the IC50 (in the data set with PBMC; in [1]) were 13 µM and 45 nM, respectively. The corresponding values for `CC/C(O)=C(\C#N)C(=O)Nc1ccc(-c2cccc(Cl)c2)c(C(=O)OC)c1` are 34 µM and 31 nM.

In general, IC50 refers to the midpoint of a concentration-inhibition curve. One may read the inhibition in vivo as how much of the control response was suppressed. As usually defined, the half-life is how long it takes for the measured level to halve. A low value points to rapid decline. The ED50 is the dose that gives a 50% effect, or the effect in half of the subjects.

For the origin of these results see ChEMBL document CHEMBL1926525 (Bioorg Med Chem Lett, 2011).
